Data taken from patent US10377743B2, “Inhibitors of RAS and methods of use thereof” (Araxes Pharma LLC, priority 2016, dated 2019).

Biological target: T1, KRAS G12C 1-169, his-tagged protein, GDP-loaded (Homo sapiens, UniProt P01116, G12C)
T1 construct: KRAS G12C 1-169, his-tagged protein, GDP-loaded
Assay: Biochemical assay: covalent binding (modification %) to KRAS G12C by mass spectrometry
Conditions: 2 hour incubation period
Description: Test compounds were prepared as 10 mM stock solutions in DMSO (Fisher cat# BP-231-100). KRAS G12C 1-169, his-tagged protein, GDP-loaded was diluted to 2 μM or 0.5 μM in buffer (20 mM Hepes, 150 mM NaCl, 1 mM MgCl2). Compounds were tested for activity as follows:
Compounds were diluted to 50× final test concentration in DMSO in 96-well storage plates. Compound stock solutions were vortexed before use and observed carefully for any sign of precipitation. Dilutions were as follow: • For 100 μM final compound concentration, compounds were diluted to 5000 μM (5 μL 10 mM compound stock+5 μL DMSO and mixed well by pipetting. • For 30 μM final compound concentration, compounds were diluted to 1500 μM (3 μL 10 mM compound stock+17 μL DMSO) and mixed well by pipetting. • For 10 μM final compound concentration, compounds were diluted to 500 μM (2 μL 10 mM compound stock+38 μL DMSO) and mixed well by pipetting. 49 μL of the stock protein solution was added to each well of a 96-well PCR plate (Fisher cat#1423027). 1 μl of the diluted 50× compounds were added to appropriate wells in the PCR plate using 12-channel pipettor. Reactions were mixed carefully and thoroughly by pipetting up/down with a 200 μL multi-channel pipettor. The plate was sealed well with aluminum plate seal, and stored in drawer at room temperature for 10 minutes, 30 minutes, 2 hours or 24 hours. 5 μL of 2% formic acid (Fisher cat# A117) in de-ionized H2O was then added to each well followed by mixing with a pipette. The plate was then resealed with aluminum seal and stored on dry ice until analyzed as described below.
The above described assays were analyzed by mass spectrometry according to one of the following two procedures:
The MS instrument is set to positive polarity, 2 GHz resolution, and low mass (1700) mode and allowed to equilibrate for 30 minutes. The instrument is then calibrated, switched to acquisition mode and the appropriate method loaded.
After another 30 minute equilibration time, a blank batch (i.e., buffer) is run to ensure equipment is operating properly. The samples are thawed at 37° C. for 10 minutes, briefly centrifuged, and transfer to the bench top. Wells A1 and H12 are spiked with 1 μL 500 μM internal standard peptide, and the plates centrifuged at 2000×g for 5 minutes. The method is then run and masses of each individual well recorded.
The masses (for which integration data is desired) for each well are pasted into the platemap and exported from the analysis. Masses for the internal standards are exported as well. The data at 50 ppm is extracted for the +19 charge state, and identity of well A1 is assigned using the internal standard spike and integrated. Peak data is exported as a TOF list and the above steps are repeated individually, for the +20, 21, 22, 23, 24, and 25 charge states.
The masses and peak intensities of KRAS G12C protein species were measured using a Dionex RSLCnano system (Thermo Scientific) connected to a Q Exactive Plus mass spectrometer (Thermo Scientific).
[…] of sample was each loaded onto a Aeris™ 3.6 μm WIDEPORE C4 200 Å, LC Column 50×2.1 mm column maintained at 40° C. at a flow rate of 600 μL/min with 20% Solvent A (0.1% formic acid in H2O) and 80% Solvent B (0.1% formic acid in acetonitrile). The liquid chromatography conditions were 20% solvent B for 1 minute, 20% to 60% solvent B for 1.5 minutes, 60% to 90% solvent for 0.5 minute, 90% solvent B for 0.2 minute, 90% to 20% solvent B for 0.2 minute, and then equilibrated for 1.6 minute before the following sample injection. The flow rate was maintained at 600 μL/min throughout the sample analysis.
The mass spectrometer was operated in profile mode at a resolution of 17500, 5 microscans, using 50 msec max injection time and an AGC target of 1×10^6, and a full mass range from 800-1850 m/z was recorded. The HCD trapping gas was optimized for maximum sensitivity for intact proteins. […]

[1] = 10 μM compound (compounds 1-20)
[2] = 8 μM compound (compounds 21-92)

SMILES | Binding % [1] | Binding % [2]
C=CC(=O)N1CC(N2Cc3cc(-c4cc(O)cc5ccccc45)ccc3C2=O)C1 [Compound 1, 2-(1-acryloylazetidin-3-yl)-5-(3-hydroxynaphthalen-1-yl)isoindolin-1-one] | ++ (++ indicates binding activity from 10 to 50%) | –
C=CC(=O)N1CC(N2Cc3ccc(-c4cc(O)cc5ccccc45)cc3C2=O)C1 [Compound 2, 2-(1-acryloylazetidin-3-yl)-6-(3-hydroxynaphthalen-1-yl)isoindolin-1-one] | +++ (+++ indicates binding activity greater than 50%) | –
C=CC(=O)N1CC(N2Cc3ccc(-c4cc(O)cc5ccccc45)cc3CC2=O)C1 [Compound 3, 2-(1-acryloylazetidin-3-yl)-6-(3-hydroxynaphthalen-1-yl)-1,4-dihydroisoquinolin-3(2H)-one] | +++ (+++ indicates binding activity greater than 50%) | –
C=CC(=O)N1CCCC(N2Cc3ccc(-c4cc(O)cc5ccccc45)cc3C2=O)C1 (centres unmarked) [Compound 4, 2-(1-acryloylpiperidin-3-yl)-6-(3-hydroxynaphthalen-1-yl)isoindolin-1-one] | + (+ indicates binding activity up to 10%) | –
C=CC(=O)N1CC(N2Cc3ccc(-c4c(C)ccc5[nH]ncc45)cc3C2=O)C1 [Compound 5, 2-(1-acryloylazetidin-3-yl)-6-(5-methyl-1H-indazol-4-yl)isoindolin-1-one] | ++ (++ indicates binding activity from 10 to 50%) | –
C=CC(=O)N1CC(N2Cc3ccc(-c4c(O)cccc4F)cc3C2=O)C1 [Compound 6, 2-(1-acryloylazetidin-3-yl)-6-(2-fluoro-6-hydroxyphenyl)isoindolin-1-one] | + (+ indicates binding activity up to 10%) | –
C=CC(=O)N1CCC(N2Cc3ccc(-c4cc(O)cc5ccccc45)cc3C2=O)CC1 [Compound 7, 2-(1-acryloylpiperidin-4-yl)-6-(3-hydroxynaphthalen-1-yl)isoindolin-1-one] | + (+ indicates binding activity up to 10%) | –
C=CC(=O)N1CC(N2Cc3ccc(-c4c(C)ccc5cn[nH]c45)cc3C2=O)C1 [Compound 8, 2-(1-acryloylazetidin-3-yl)-6-(6-methyl-1H-indazol-7-yl)isoindolin-1-one] | + (+ indicates binding activity up to 10%) | –
C=CC(=O)N1CCC(N2Cc3ccc(-c4cc(O)cc5ccccc45)cc3C2=O)C1 (centres unmarked) [Compound 9, 2-(1-acryloylpyrrolidin-3-yl)-6-(3-hydroxynaphthalen-1-yl)isoindolin-1-one] | ++ (++ indicates binding activity from 10 to 50%) | –
C=CC(=O)N1CC(N2Cc3ccc(-c4cc(O)ccc4Cl)cc3C2=O)C1 [Compound 10, 2-(1-acryloylazetidin-3-yl)-6-(2-chloro-5-hydroxyphenyl)isoindolin-1-one] | +++ (+++ indicates binding activity greater than 50%) | –
C=CC(=O)N1CC(N2Cc3ccc(-c4cc(O)ccc4C)cc3C2=O)C1 [Compound 11, 2-(1-acryloylazetidin-3-yl)-6-(5-hydroxy-2-methylphenyl)isoindolin-1-one] | ++ (++ indicates binding activity from 10 to 50%) | –
C=CC(=O)N1CC(N2Cc3c(Cl)cc(-c4cc(O)cc5ccccc45)cc3C2=O)C1 [Compound 12, 2-(1-acryloylazetidin-3-yl)-4-chloro-6-(3-hydroxynaphthalen-1-yl)isoindolin-1-one] | +++ (+++ indicates binding activity greater than 50%) | –
C=CC(=O)N1CC(N2Cc3c(Cl)cc(-c4cc(O)ccc4Cl)cc3C2=O)C1 [Compound 13, 2-(1-acryloylazetidin-3-yl)-4-chloro-6-(2-chloro-5-hydroxyphenyl)isoindolin-1-one] | ++ (++ indicates binding activity from 10 to 50%) | –
C=CC(=O)N1CC(N2Cc3c(C)cc(-c4cc(O)cc5ccccc45)cc3C2=O)C1 [Compound 14, 2-(1-acryloylazetidin-3-yl)-6-(3-hydroxynaphthalen-1-yl)-4-methylisoindolin-1-one] | +++ (+++ indicates binding activity greater than 50%) | –
C=CC(=O)N1CC(N2Cc3c(C)cc(-c4cc(O)ccc4Cl)cc3C2=O)C1 [Compound 15, 2-(1-acryloylazetidin-3-yl)-6-(2-chloro-5-hydroxyphenyl)-4-methylisoindolin-1-one] | ++ (++ indicates binding activity from 10 to 50%) | –
C=CC(=O)N1CC(N2Cc3ccc(-c4c[nH]c5ccccc45)cc3C2=O)C1 [Compound 16, 2-(1-acryloylazetidin-3-yl)-6-(1H-indol-3-yl)isoindolin-1-one] | ++ (++ indicates binding activity from 10 to 50%) | –
C=CC(=O)N1CC(N2Cc3c(cc(-c4cc(O)ccc4Cl)cc3C(F)(F)F)C2=O)C1 [Compound 17, 2-(1-acryloylazetidin-3-yl)-6-(2-chloro-5-hydroxyphenyl)-4-(trifluoromethyl)isoindolin-1-one] | ++ (++ indicates binding activity from 10 to 50%) | –
C=CC(=O)NCCN1Cc2ccc(-c3cc(O)cc4ccccc34)cc2C1=O [Compound 18, N-(2-(6-(3-hydroxynaphthalen-1-yl)-1-oxoisoindolin-2-yl)ethyl)acrylamide] | + (+ indicates binding activity up to 10%) | –
C=CC(=O)N1CC(N2Cc3cc(F)c(-c4cc(O)cc5ccccc45)cc3C2=O)C1 [Compound 19, 2-(1-acryloylazetidin-3-yl)-5-fluoro-6-(3-hydroxynaphthalen-1-yl)isoindolin-1-one] | +++ (+++ indicates binding activity greater than 50%) | –
C=CC(=O)N1CC(N2Cc3ccc(Nc4ccccc4)cc3C2=O)C1 [Compound 20, 2-(1-acryloylazetidin-3-yl)-6-(phenylamino)isoindolin-1-one] | + (+ indicates binding activity up to 10%) | –
C=CC(=O)N1CC(N2Cc3cc(F)c(-c4cc(O)ccc4Cl)cc3C2=O)C1 [Compound 21, 2-(1-acryloylazetidin-3-yl)-6-(2-chloro-5-hydroxyphenyl)-5-fluoroisoindolin-1-one] | – | ++ (++ indicates binding activity from 10 to 50%)
C=CC(=O)NCCN1Cc2ccc(-c3c(C)ccc4[nH]ncc34)cc2C1=O [Compound 22, N-(2-(6-(5-methyl-1H-indazol-4-yl)-1-oxoisoindolin-2-yl)ethyl)acrylamide] | – | + (+ indicates binding activity up to 10%)
C=CC(=O)N1CC(N2Cc3c(C(N)=O)cc(-c4cc(O)cc5ccccc45)cc3C2=O)C1 [Compound 23, 2-(1-acryloylazetidin-3-yl)-6-(3-hydroxynaphthalen-1-yl)-1-oxoisoindoline-4-carboxamide] | – | +++ (+++ indicates binding activity greater than 50%)
C=CC(=O)N1CC(N2Cc3c(C#N)cc(-c4cc(O)cc5ccccc45)cc3C2=O)C1 [Compound 24, 2-(1-acryloylazetidin-3-yl)-6-(3-hydroxynaphthalen-1-yl)-1-oxoisoindoline-4-carbonitrile] | – | +++ (+++ indicates binding activity greater than 50%)
C=CC(=O)N1CC(N2C(=O)c3ccc(-c4cc(O)cc5ccccc45)cc3C2=O)C1 [Compound 25, 2-(1-acryloylazetidin-3-yl)-5-(3-hydroxynaphthalen-1-yl)isoindoline-1,3-dione] | – | ++ (++ indicates binding activity from 10 to 50%)
C=CC(=O)N1CC(N2Cc3c(F)cc(-c4cc(O)ccc4Cl)cc3C2=O)C1 [Compound 26, 2-(1-acryloylazetidin-3-yl)-6-(2-chloro-5-hydroxyphenyl)-4-fluoroisoindolin-1-one] | – | ++ (++ indicates binding activity from 10 to 50%)
